Results published in US12209096B2, “Compounds and compositions for inducing chondrogenesis” (NOVARTIS AG, priority 2017, dated 2025).
Like-named read-outs stand apart in the source and are kept apart here.

Tested on: NHACs
Experiment: calcium flux assay
Assay type: cell-based, human
Settings: for Emax: read-out: (A) % Efficacy
Description: NHACs were plated in 1536 Greiner plate at 2000 cells/well in 4 ul volume. 24 hours later, 4 ul of Calcium 5 dye solution (Hank's Balanced Salt/HEPES buffer containing 5 mM of Probenecid) was then added and incubated for 1 hour at room temperature. Fluorescence readings at excitation wavelength of 470-495 nm and emission wavelength of 515-575 nm were done using FLIPR high-throughput screening system (Molecular Devices, Sunnyvale, CA). The test compound was then added to each well at the indicated dose. Signal was measured prior compound dispense and after using a first interval of 1 second for 60 reads and second interval of 3 second for 20 reads. Data was analyzed using Molecular Devices ScreenWorks® Software.

Cc1ccc([C@H]2[C@H]3O[C@H](C[C@H]3F)[C@@H]2C(=O)Nc2ccc(Cl)c(Cl)c2)cn1 [Example 164, (1R,2R,3S,4R,5R)—N-(3,4-dichlorophenyl)-5-fluoro-3-(6-methylpyridin-3-yl)-7-oxabicyclo[2.2.1]heptane-2-carboxamide]
EC50 (Homo sapiens): > 50 µM | Emax (Homo sapiens): 0%

Cc1cc([C@H]2[C@H]3O[C@H]([C@H](O)[C@@H]3O)[C@@H]2C(=O)Nc2ccnc(C(F)(F)F)c2)ccn1 [Example 161, (1S,2R,3S,4R,5S,6R)-5,6-dihydroxy-3-(2-methylpyridin-4-yl)-N-(2-(trifluoromethyl)pyridin-4-yl)-7-oxabicyclo[2.2.1]heptane-2-carboxamide]
EC50 (Homo sapiens): > 50 µM | Emax (Homo sapiens): 29%

Cc1cc([C@@H]2[C@@H](C(=O)Nc3cnc(Cl)c(Cl)c3)[C@@H]3O[C@H]2C[C@H]3F)ccn1 [Example 110, (1S,2R,3S,4S,6R)—N-(5,6-dichloropyridin-3-yl)-6-fluoro-3-(2-methylpyridin-4-yl)-7-oxabicyclo[2.2.1]heptane-2-carboxamide]
EC50 (Homo sapiens): 28 µM | Emax (Homo sapiens): 199%

Nc1ncc([C@H]2[C@H]3O[C@H](C[C@@H]3O)[C@H]2C(=O)Nc2ccc(Cl)c(Cl)c2)cn1 [Example 60, (1R,2S,3S,4R,5S)-3-(2-aminopyrimidin-5-yl)-N-(3,4-dichlorophenyl)-5-hydroxy-7-oxabicyclo[2.2.1]heptane-2-carboxamide]
EC50 (Homo sapiens): > 50 µM | Emax (Homo sapiens): 2%

Cc1cc([C@H]2[C@H]3O[C@H](C[C@H]3F)[C@@H]2C(=O)Nc2cccc(C(F)(F)F)c2)ccn1 [Example 96, (1R,2R,3S,4R,5R)-5-fluoro-3-(2-methylpyridin-4-yl)-N-(3-(trifluoromethyl)phenyl)-7-oxabicyclo[2.2.1]heptane-2-carboxamide]
EC50 (Homo sapiens): 14 µM | Emax (Homo sapiens): 281%

Cc1ccc([C@@H]2[C@@H](C(=O)Nc3ccc(Cl)c(Cl)c3)[C@@H]3O[C@H]2C[C@H]3F)cn1 [Example 116, (1S,2R,3S,4S,6R)—N-(3,4-dichlorophenyl)-6-fluoro-3-(6-methylpyridin-3-yl)-7-oxabicyclo[2.2.1]heptane-2-carboxamide]
EC50 (Homo sapiens): 23 µM | Emax (Homo sapiens): 58%

COc1ccc(NC(=O)[C@@H]2[C@@H]3O[C@@H]([C@H]4C[C@H]43)[C@@H]2c2ccnc(F)c2F)cn1 [Example 34, (1S,2S,4R,5R,6S,7S)-7-(2,3-difluoropyridin-4-yl)-N-(6-methoxypyridin-3-yl)-8-oxatricyclo[3.2.1.0^2,4]octane-6-carboxamide]
EC50 (Homo sapiens): > 50 µM | Emax (Homo sapiens): 3%

Cc1cc([C@H]2[C@H]3O[C@H]([C@@H]4C[C@@H]43)[C@@H]2C(=O)Nc2ccc(Cl)cc2C#N)ccn1 [Example 67, (1S,2S,4R,5R,6R,7S)—N-(4-chloro-2-cyanophenyl)-7-(2-methylpyridin-4-yl)-8-oxatricyclo[3.2.1.0^2,4]octane-6-carboxamide]
EC50 (Homo sapiens): > 50 µM | Emax (Homo sapiens): 39%

COc1ccc(NC(=O)[C@H]2[C@@H](c3ccnc(C)c3)[C@H]3O[C@@H]2C[C@H]3F)cn1 [Example 14, (1R,2S,3S,4R,5R)-5-fluoro-N-(6-methoxypyridin-3-yl)-3-(2-methylpyridin-4-yl)-7-oxabicyclo[2.2.1]heptane-2-carboxamide]
EC50 (Homo sapiens): 8.3 µM | Emax (Homo sapiens): 115%

O=C(Nc1ccc(Cl)c(Cl)c1)[C@H]1[C@@H]2O[C@@H]([C@H]3C[C@H]32)[C@@H]1c1ccnc(F)c1F (single isomer, unassigned) [Example 122a]
EC50 (Homo sapiens): 25 µM | Emax (Homo sapiens): 160%

Cc1cc([C@H]2[C@H]3O[C@H](C[C@@H]3O)[C@H]2C(=O)Nc2cnc(Cl)c(Cl)c2)ccn1 [Example 6, (1R,2S,3S,4R,5S)-N-(5,-6-dichloropyridin-3-yl)-5-hydroxy-3-(2-methylpyridin-4-yl)-7-oxabicyclo[2.2.1]heptane-2-carboxamide]
(A) % Efficacy: 17% | EC50: > 50 µM

Cc1cc([C@H]2[C@H]3O[C@H](C[C@@H]3O)[C@H]2C(=O)Nc2cnc(C)c(Cl)c2)ccn1 [Example 5, (1R,2S,3S,4R,5S)-N-(5-chloro-6-methylpyridin-3-yl)-5-hydroxy-3-(2-methylpyridin-4-yl)-7-oxabicyclo[2.2.1]heptane-2-carboxamide]
EC50 (Homo sapiens): > 50 µM | Emax (Homo sapiens): 18%

Cc1cc([C@H]2[C@H]3O[C@H](C[C@@H]3O)[C@@H]2C(=O)Nc2cnc(C)c(Cl)c2)ccn1 [Example 81, (1R,2R,3S,4R,5S)—N-(5-chloro-6-methylpyridin-3-yl)-5-hydroxy-3-(2-methylpyridin-4-yl)-7-oxabicyclo[2.2.1]heptane-2-carboxamide]
EC50 (Homo sapiens): 2.7 µM | Emax (Homo sapiens): 34%

Cc1cc([C@H]2[C@H](C(=O)Nc3ccc(Cl)c(Cl)c3)[C@@H]3C[C@](C)(O)[C@H]2O3)ccn1 [Example 179, (1S,2S,3R,4S,5S)—N-(3,4-dichlorophenyl)-5-hydroxy-5-methyl-3-(2-methylpyridin-4-yl)-7-oxabicyclo[2.2.1]heptane-2-carboxamide]
EC50 (Homo sapiens): > 50 µM | Emax (Homo sapiens): 22%

Cc1cc([C@H]2[C@H]3O[C@H]([C@@H]4C[C@@H]43)[C@H]2C(=O)Nc2cccc(C(F)(F)F)c2)ccn1 [Example 26, (1S,2S,4R,5R,6S,7S)-7-(2-methylpyridin-4-yl)-N-[3-(trifluoromethyl)phenyl]-8-oxatricyclo[3.2.1.0^2,4]octane-6-carboxamide]
EC50 (Homo sapiens): 23 µM | Emax (Homo sapiens): 54%

Cc1cc([C@@H]2[C@@H](C(=O)Nc3cccc(C(F)(F)F)c3)[C@@H]3O[C@H]2C[C@H]3O)ccn1 [Example 86, (1S,2R,3S,4S,6R)-6-hydroxy-3-(2-methylpyridin-4-yl)-N-(3-(trifluoromethyl)phenyl)-7-oxabicyclo[2.2.1]heptane-2-carboxamide]
EC50 (Homo sapiens): > 50 µM | Emax (Homo sapiens): 38%

O=C(Nc1ccc(Cl)c(Cl)c1)[C@H]1[C@@H]2O[C@@H]([C@H]3C[C@H]32)[C@@H]1c1ccncc1 [Example 137, (1S,2S,4R,5R,6R,7S)—N-(3,4-dichlorophenyl)-7-(pyridin-4-yl)-8-oxatricyclo[3.2.1.0^2,4]octane-6-carboxamide]
EC50 (Homo sapiens): 21 µM | Emax (Homo sapiens): 202%

COc1cc([C@H]2[C@H]3O[C@H](C[C@@H]3F)[C@H]2C(=O)Nc2ccc(Cl)c(Cl)c2)ccn1 [Example 19, (1R,2S,3S,4R,5S)-N-(3,4-dichlorophenyl)-5-fluoro-3-(2-methoxypyridin-4-yl)-7-oxabicyclo[2.2.1]heptane-2-carboxamide]
EC50 (Homo sapiens): 25 µM | Emax (Homo sapiens): 258%

O=C(Nc1ccc(Cl)c(Cl)c1)[C@@H]1[C@@H](c2cncnc2)[C@H]2O[C@@H]1C[C@@H]2O [Example 141, (1R,2R,3S,4R,5S)—N-(3,4-dichlorophenyl)-5-hydroxy-3-(pyrimidin-5-yl)-7-oxabicyclo[2.2.1]heptane-2-carboxamide]
EC50 (Homo sapiens): 13 µM | Emax (Homo sapiens): 43%

COc1ccc(NC(=O)[C@H]2[C@@H]3O[C@@H]([C@H]4C[C@H]43)[C@@H]2c2ccncc2)cn1 [Example 125, (1S,2S,4R,5R,6R,7S)—N-(6-methoxypyridin-3-yl)-7-(pyridin-4-yl)-8-oxatricyclo[3.2.1.0^2,4]octane-6-carboxamide]
EC50 (Homo sapiens): 17 µM | Emax (Homo sapiens): 162%

Cc1cc([C@H]2[C@H]3O[C@H](C[C@@H]3O)[C@@H]2C(=O)Nc2cc(Cl)c(Cl)cn2)ccn1 [Example 80, (1R,2R,3S,4R,5S)—N-(4,5-dichloropyridin-2-yl)-5-hydroxy-3-(2-methylpyridin-4-yl)-7-oxabicyclo[2.2.1]heptane-2-carboxamide]
EC50 (Homo sapiens): > 50 µM | Emax (Homo sapiens): 32%

Cc1nccc([C@H]2[C@H]3O[C@H](C[C@@H]3O)[C@@H]2C(=O)Nc2ccc(Cl)c(Cl)c2)n1 [Example 82, (1R,2R,3S,4R,5S)—N-(3,4-dichlorophenyl)-5-hydroxy-3-(2-methylpyrimidin-4-yl)-7-oxabicyclo[2.2.1]heptane-2-carboxamide]
EC50 (Homo sapiens): > 50 µM | Emax (Homo sapiens): 74%

O=C(Nc1cnc(Cl)c(Cl)c1)[C@@H]1[C@@H](c2ccnc(F)c2)[C@H]2O[C@@H]1C[C@@H]2O (racemic) [Example 90, rac-(1R,2R,3S,4R,5S)—N-(5,6-dichloropyridin-3-yl)-3-(2-fluoropyridin-4-yl)-5-hydroxy-7-oxabicyclo[2.2.1]heptane-2-carboxamide]
EC50 (Homo sapiens): > 50 µM | Emax (Homo sapiens): 45%

COc1cc([C@H]2[C@H]3O[C@H]([C@@H]4C[C@@H]43)[C@@H]2C(=O)Nc2cnc(Cl)c(Cl)c2)ccn1 [Example 76, (1S,2S,4R,5R,6R,7S)—N-(5,6-dichloropyridin-3-yl)-7-(2-methoxypyridin-4-yl)-8-oxatricyclo[3.2.1.0^2,4]octane-6-carboxamide]
EC50 (Homo sapiens): 5.8 µM | Emax (Homo sapiens): 123%

COc1ccc(NC(=O)[C@H]2[C@H]3O[C@H]([C@@H]4C[C@@H]43)[C@H]2c2ccc(C)nc2)cn1 [Example 3, (1R,2R,4S,5S,6R,7R)-N-(6-methoxypyridin-3-yl)-7-(6-methylpyridin-3-yl)-8-oxatricyclo[3.2.1.0^2,4]octane-6-carboxamide]
EC50 (Homo sapiens): > 50 µM | Emax (Homo sapiens): 0%

CN[C@@H]1C[C@H]2O[C@@H]1[C@H](c1ccnc(F)c1)[C@H]2C(=O)Nc1ccc(Cl)c(Cl)c1 [Example 171, (1R,2R,3S,4R,5R)—N-(3,4-dichlorophenyl)-3-(2-fluoropyridin-4-yl)-5-(methylamino)-7-oxabicyclo[2.2.1]heptane-2-carboxamide]
EC50 (Homo sapiens): 24 µM | Emax (Homo sapiens): 237%

Cc1ccc([C@H]2[C@H]3O[C@H](C[C@@H]3F)[C@H]2C(=O)Nc2ccc(Cl)c(Cl)c2)cn1 [Example 21, (1R,2S,3S,4R,5S)-N-(3,4-dichlorophenyl)-5-fluoro-3-(6-methylpyridin-3-yl)-7-oxabicyclo[2.2.1]heptane-2-carboxamide]
EC50 (Homo sapiens): 27 µM | Emax (Homo sapiens): 159%
